Measured values: patent publication US5880092A, “Conformationally stabilized cell adhesion peptides” (La Jolla Cancer Research Foundation, priority 1995, dated 1999)
Where no end group is shown, it is not given here. [ ]: non-standard residue; d: D form. Pen = CC(C)(S)[C@H](N)C(=O)O

How the values were obtained:
[1] = test system: attachment of normal rat kidney cells to fibronectin; assay: Cell adhesion assay: inhibition of attachment of normal rat kidney cells to fibronectin; format: cell-based; conditions: fibronectin from human plasma coated at 12 μg/ml, peptide 0 to 10.0 mM, FIG. 2
Experimental: (§1) Fibronectin and vitronectin were purified from human plasma according to the methods of Ruoslahti et al., (1982) Meth. Enz. 82:803; and Hayman et al., (1983) PNAS 80:4003, respectively, both of which are incorporated herein by reference. The adhesion of normal rat kidney cells to fibronectin and vitronectin was assayed as described in Ruoslahti et al., Meth. Enz. supra. Briefly, 0.1 ml solution of fibronectin or vitronectin at a concentration of 12 μg/ml in 0.1M PBS was placed in each well of 96-well plastic microtiter plates and left for 2 hours at room temperature. The unattached protein was removed by washing three times with PBS.
(§2) One day before the assay, a confluent culture of normal rat kidney cells was split 1:2 using standard tissue culture trypsin. The cells were washed three times with PBS, pH 7.2. […] Before the last centrifugation, a sample was taken and cell numbers and viability by trypan blue exclusion are determined. […]
(§3) The unattached cells were removed simply by removing the medium and washing the wells. […] The cells were then fixed with 3% paraformaldehyde in PBS and stained with 1% toluidine blue, paraformaldehyde in PBS, and attached cells counted. Their number was determined using a cell counter that is capable of counting cells attached to a surface (Dynatech Laboratories, Alexandria, Va.). […]

[2] = test system: attachment of normal rat kidney cells to vitronectin; assay: Cell adhesion assay: inhibition of attachment of normal rat kidney cells to vitronectin; format: cell-based; conditions: vitronectin from human plasma coated at 12 μg/ml, peptide 0 to 10.0 mM, FIG. 2
Experimental: as §1, §2, §3

With “G[Pen]GRGDSPC (cysteine pairing not given here) [linear peptide]” the “inhibition of attachment to fibronectin” value [1] was “inhibited attachment of cells to both substrates at relatively similar concentrations” and the “inhibition of attachment to vitronectin” value [2] was “inhibited attachment of cells to both substrates at relatively similar concentrations”.
